Measured values published in BindingDB's records for doi:10.1016/0960-894X(95)00024-N (1995).

Experiment: Concentration required for the in vitro inhibition of Acyl coenzyme A:cholesterol acyltransferase (ACAT) in intestinal microsomes isolated from cholesterol-fed rabbits

IC50 [nM] | SMILES
440 | CCCCCCCCCCCCCCCn1nnc(C(NC(=O)c2c(C)cccc2C)c2ccccc2)n1 (configuration not stated) [2,6-Dimethyl-N-[(2-pentadecyl-2H-tetrazol-5-yl)-phenyl-methyl]-benzamide]
3700 | CCCCCCCn1nnc(C(NC(=O)c2c(C)cccc2C)c2ccccc2)n1 (configuration not stated) [N-[(2-Heptyl-2H-tetrazol-5-yl)-phenyl-methyl]-2,6-dimethyl-benzamide]
